Test results from patent US4695552A, “Process and reagent for the determination of the hemoglobin-haptoglobin complex in the presence of free hemoglobin” (Boehringer Mannheim GmbH, priority 1983, dated 1987).

Legend:
Assay type in all cases: biochemical
free hemoglobin (Hb) [1] = molecular target: T1, free hemoglobin (Hb) (Homo sapiens, UniProt P68871+P69905); test: Peroxidase reaction of free hemoglobin with perborate and ABTS as substrate, with detergent added; conditions: ABTS 0.5 mmol/l., pH 3.8, 0.25 mg. Hb/ml.
Method: (§1) 2 ml. of a reagent solution containing 0.1 mol/liter of sodium citrate buffer (pH 3.8) and 0.5 mmol/liter ABTS are mixed with 0.025 ml. of a sample solution which contains free hemoglobin or the hemoglobin-haptoglobin complex with a hemoglobin concentration of 0.25 mg. Hb/ml. The peroxidase reaction is started with 0.020 ml. of 0.58 molar sodium perborate solution in 0.15 molar citric acid and the color development is monitored by extinction measurement at 436 nm. The reaction temperature is 25° C.
(§2) Analogous measurements are carried out in which, in addition to the above-mentioned components, there are added to the reagent solution the detergents mentioned in the following Table 3 in the concentrations there also given.

[2] = molecular target: T2, hemoglobin haptoglobin complex (Hb:Hp) (Homo sapiens, UniProt P68871+P69905); test: Peroxidase reaction of hemoglobin-haptoglobin complex with perborate and ABTS as substrate, with detergent added; conditions: ABTS 0.5 mmol/l., pH 3.8
Method: as §1, §2

free hemoglobin (Hb) [3] = molecular target: T1, free hemoglobin (Hb); test: Peroxidase reaction of free hemoglobin with peroxide and guaiacol as substrate, with detergent added; conditions: digitonin 0.5 mg./ml.; guaiacol 30 mmol/l.; pH 4.0; 0.25 mg. Hb/ml.
Method: (§3) 2 ml. of a reagent solution containing 0.1 mol/liter of sodium acetate buffer (pH 4.0) and 30 or 15 mmol/liter of guaiacol are mixed with 0.05 ml. of a sample solution which contains free hemoglobin or a hemoglobin-haptoglobin complex with a hemoglobin concentration of 0.25 mg. Hb/ml. The peroxidase reaction is started with 0.1 ml. of 0.58 molar sodium perborate solution in 0.15 molar citric acid and the color development is monitored by extinction measurement at 436 nm. The reaction temperature is 25° C. After a certain time, the color development comes to a stop. Because of the instability of the colored material, the extinction again decreases. The extinction changes given in the following Table 4 are the initial velocities determined by plotting the tangents on the extinction-time curves.
(§4) Analogous measurements are carried out in which, to the reagent solution, there has been added, in each case, one of the detergents given in Table 4 in the there-given concentration.

[4] = molecular target: T2, hemoglobin haptoglobin complex (Hb:Hp); test: Peroxidase reaction of hemoglobin-haptoglobin complex with peroxide and guaiacol as substrate, with detergent added; conditions: digitonin 0.5 mg./ml.; guaiacol 30 mmol/l.; pH 4.0
Method: as §3, §4

T2 sequence (P69905 2-142 limits assumed): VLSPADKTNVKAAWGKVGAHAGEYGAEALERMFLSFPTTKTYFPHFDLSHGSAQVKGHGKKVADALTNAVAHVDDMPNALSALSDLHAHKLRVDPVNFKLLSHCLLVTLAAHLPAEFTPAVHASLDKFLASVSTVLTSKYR
T2 sequence (P68871 2-147 limits assumed): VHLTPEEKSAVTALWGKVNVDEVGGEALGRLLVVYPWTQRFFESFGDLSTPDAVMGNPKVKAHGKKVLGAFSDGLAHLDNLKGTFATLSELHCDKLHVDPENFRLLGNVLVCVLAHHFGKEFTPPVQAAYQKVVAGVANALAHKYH
T2 sequence (P00738 162-406 partner limits assumed): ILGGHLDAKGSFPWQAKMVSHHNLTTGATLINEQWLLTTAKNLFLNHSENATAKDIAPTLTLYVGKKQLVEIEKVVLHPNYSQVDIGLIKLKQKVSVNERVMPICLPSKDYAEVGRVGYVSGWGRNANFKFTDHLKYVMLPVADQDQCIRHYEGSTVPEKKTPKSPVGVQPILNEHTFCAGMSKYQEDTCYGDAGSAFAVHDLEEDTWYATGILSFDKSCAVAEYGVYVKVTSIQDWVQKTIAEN
T1 sequence (P69905 2-142 limits assumed): as the sequence (P69905 2-142 limits assumed) above
T1 sequence (P68871 2-147 limits assumed): as the sequence (P68871 2-147 limits assumed) above

`C[C@@H]1CC[C@@]2(OC1)O[C@H]1[C@@H](O)[C@H]3[C@@H]4CC[C@H]5C[C@@H](O[C@@H]6O[C@H](CO)[C@H](O[C@@H]7O[C@H](CO)[C@@H](O)[C@H](O[C@@H]8OC[C@@H](O)[C@H](O)[C@H]8O)[C@H]7O[C@@H]7O[C@H](CO)[C@H](O)[C@H](O[C@@H]8O[C@H](CO)[C@@H](O)[C@H](O)[C@H]8O)[C@H]7O)[C@H](O)[C@H]6O)[C@H](O)C[C@]5(C)[C@H]4CC[C@]3(C)[C@H]1[C@@H]2C` [digitonin] was tested, and the “ΔE/min. Hb” value (free hemoglobin (Hb) [1]; digitonin 0.15 mg./ml.) was 21.8 mE/min, the “ΔE/min. Hb” value (free hemoglobin (Hb) [1]; digitonin 0.3 mg./ml.) was 20 mE/min and the “Hb:Hp / Hb” value ([2]; digitonin 0.15 mg./ml.) was 37.6. For the same molecule, the “ΔE/min. Hb:Hp” value ([2]; digitonin 0.15 mg./ml.) was 818 mE/min, the “Hb:Hp / Hb” value ([2]; digitonin 0.3 mg./ml.) was 41 and the “ΔE/min. Hb:Hp” value ([2]; digitonin 0.3 mg./ml.) was 818 mE/min. For the same molecule, the “ΔE/min. Hb” value (free hemoglobin (Hb) [3]) was 3 mE/min, the “Hb:Hp / Hb” value [4] was 50 and the “ΔE/min. Hb:Hp” value [4] was 154 mE/min.
